Legend:
MC38 cells = assay: In vivo metastasis assay (tail vein injection, C57Bl/6 mice); parameters: species or system mouse; settings: 10 mg/kg every 48 hours, 3 weeks
Description: FIG. 24A: MC38 cells were subjected to invasion assays using BioCoat Matrigel transwells in the presence of the indicated concentrations of AP-4-139B. 24 hours later, cells were fixed and stained with Crystal Violet. Shown are representative images taken from 8 random fields of view per well. Scale bar=100 μm. FIG. 24B: Quantification of FIG. 24A *** p<0.001. FIG. 24C: Schematic representation of the metastasis assay. 4×10^5 MC38 cells were injected into the tail vein of 8-10 week old male C57Bl/6 mice. Mice were treated with i.p. injection of 10 mg/kg AP-4-139B every 48 hours. After 3 weeks, the lungs of mice were formalin fixed and H&E stained, and assessed for the presence of metastatic nodules. […] FIG. 24E: Quantification of FIG. 24D. n=5 mice per group. * p<0.05.
For in vivo metastasis assays, 8-10 week old male C57Bl/6 mice were injected with 4×10^5 MC38 cells. […] At the end of the study, mice were euthanized, lungs were harvested and fixed in formalin for analysis of lung tumor nodules by H&E. For anti-tumor vaccination studies, MC38 cells were treated with 10 μM AP-4-139B for 48 h, resulting in approximately 20% cell death (as assessed by Trypan Blue staining). […] Ten days later, mice were challenged on the right flank with 5×10^5 live MC38 cells, and tumor growth and incidence were monitored 3 times per week. […]

MC38 and HT-29 cells = assay: Extracellular HMGB1 release; type: cell-based; settings: 8 or 24 hours
Description: FIG. 6A: 1×10^6 MC38 cells were injected subcutaneously into the right flank of 6-8-week-old male C57Bl/6 mice. Once tumors reached an approximate volume of 100 mm^3, mice were treated with AP-4-139B (10 mg/kg) every 48 hours. 20 days after the start of treatment, tumors were excised, weighed, minced and digested. Tumor-infiltrating and splenic conventional CD4 (cCD4) (Live CD45^+ DUMP^− CD3^+CD4^+Foxp3^−), Tregs (Live CD45^+ DUMP^− CD3^+CD4^+Foxp3^+), CD8 (Live CD45^+ DUMP^− CD3^+CD8^+) T-cells, and Dendritic Cells (Live CD45^+ DUMP^− CD3^−CD11c^+MHCII^+) numbers were assessed by flow cytometry. * p<0.05, n.s. not significant. n=8 mice per group. FIG. 6B: MC38 and HT-29 cells were treated with the indicated concentrations of AP-4-139B for either 8 or 24 hours; media was collected and subjected to WB for HMGB1. Data shown are representative of three technical replicates. FIG. 6C: MC38 and HT-29 cells were treated with the indicated concentrations of AP-4-139B for three hours and then assayed for extracellular ATP release. […]
The XF Cell Mito Stress Test was performed. […] For extracellular ATP release, ATP was measured using the CellTiter-Glo Kit (Promega catalog #G7570). […] 10 μl of CellTiter-Glo Reaction Mix was then mixed with 10 μl of culture media; the luminescence signal was detected using a luminometer.

c1ccc(-c2cn3nc(CCCCCC[P+](c4ccccc4)(c4ccccc4)c4ccccc4)sc3n2)cc1 [AP-4-139B, Triphenyl(6-(6-phenylimidazo[2,1-b][1,3,4]thiadiazol-2-yl)hexyl)phosphonium bromide]
number of tumor nodules in the lung (MC38 cells): markedly decreased number of tumor nodules in the lung | HMGB1 secretion (MC38 and HT-29 cells): reproducibly induced HMGB1 secretion

— patent US12616753B2, “HSP70 inhibitors and methods of using same” (THE WISTAR INSTITUTE, priority 2020, dated 2026)
